For orientation: IC50 means the point on the concentration scale where inhibition reaches its midpoint.

Read-outs that look alike come from different tables or passages of the source. Bounds are passed on as bounds.

Data on 10 molecules can be found in US12624109B2, “αv-integrin targeted small molecule drug conjugates” (TargetThera LLC, priority 2023, dated 2026).

For data set [1], the system named is human breast cancer MCF7 cells. The data set can be described thus: In vitro cell viability assay (MTT), MCF7. Type of data set: cell-based. On the procedure:
[The source words this procedure for another cell line and reports this cell line under the same test.] The cell viability assay measures how effectively different compounds (i.e., different conjugates or structures) kill cancer cells in vitro. The IC50 value is the compound concentration at which the conjugate kills 50% of the cells, which inhibits 50% of the cells from remaining alive.
For the cell viability assay, the actual potency IC50 values depend on a number of factors, including the length of incubation time. Thus, the cell viability assay is particularly effective for determining the relative toxicity of different compounds.
(§1) Human glioblastoma cells (U87-luc) were seeded in 96-well plates ([…]) and were treated with the compounds of interest at concentrations 1, 3, 10, 30, and 100 µM. At the end of the experiments, the cell cultures were supplemented with MTT reagent (3-(4,5-dimethylthiazol-2-yl)-2,5-diphenyltetrazolium bromide) and incubated for an additional 4 hours. Then, dimethyl sulfoxide ([…]) was added to the cell culture to dissolve the formazan crystals and incubated for 10 minutes at room temperature. The absorbance rate of the cell cultures was read at 570 nm by using a Microplate Reader. All the reactions were performed in triplicate. Measured data of cellular proliferation were calculated using viability values of untreated control cells (100%).

The subject of data set [2] is human glioblastoma U87 cells. The data set can be described thus: In vitro cell viability assay (MTT), U87. The settings on record: for IC50: U87 cells; for cell viability result in words: U87 and MCF7 cells. The format is cell-based. On the procedure: The cell viability assay measures how effectively different compounds (i.e., different conjugates or structures) kill cancer cells in vitro.
For the cell viability assay, the actual potency IC50 values depend on a number of factors, including the length of incubation time.
as §1

The next data set has as its system CWR-R1ca-Luc cells. The data set can be described thus: In vivo efficacy, prostate cancer tumors in nude mice. The note with it: for average prostate cancer tumor volume: 0.5 mole of compound/kg mouse each day, subcutaneous, 3 weeks; for IVIS average photons (viable tumor tissue) / average prostate cancer tumor weight: at conclusion of 3 weeks, daily subcutaneous dosing. On the procedure:
(§2) The animal model and treatment used a total of 50 Athymic Nude-Foxn1^nu male mice which were purchased from Envigo, Indianapolis, IN, USA. The mice were housed in a clean room under strict conditions. Under the approval of the Institutional Animal Care and Use Committee, all animal protocols were carried out in line with the National Institute of Health Guide for the Care and Use of Laboratory Animals. Once cells reached 70-80% confluency, the cells were collected and counted. About 2×10^6 CWR-R1ca-Luc cells were mixed in 1:1 Matrigel® Matrix (Life Sciences, Tewksbury, MA) and injected subcutaneously into the flank of each mouse. Measurement of tumor volume of prostate cancer tumors of mice and mice weights were taken biweekly. When a palpable tumor developed, size 300-500 mm^3, mice were randomized into 10 groups with 5 mice in each group. The corresponding treatment was injected subcutaneously every day per each group up to 3 weeks. Before starting the treatment, the mice were injected with luciferin 150 mg/kg intraperitoneally. After 20 minutes, the mice were anesthetized in an induction chamber using 2% isoflurane, and bioluminescence images were taken using IVIS® Lumina III In Vivo Imaging System (PerkinElmer, Boston, MA) as a base line. Before the end of the experiment, the imaging process was repeated for all mice groups.
(§3) All compounds were dosed at 0.5 mole of compound/kg mouse each day. Thus, a 20 g mouse was dosed at […] of compound per day, and larger mice were dosed at correspondingly higher doses in proportionality to mouse body weight. […] The concentration of each formulation was adjusted so that each dose would be 10 μL solution/g mouse.
FIGS. 4A, 4B, 5, 6 and 7 all pertain to the same experiment conducted with mice having prostate cancer over a study period of three weeks.

Data set [3] in a line: Body weight of tumor-bearing mice (toxicity). Type of data set: in vivo. The settings on record: daily subcutaneous dosing; for toxicity indicated by body weight: 3 weeks; for average body weight: at conclusion of 3 weeks. The protocol:
as §2, §3
FIG. 7 is a bar graph of average body weight of the mice at the conclusion of the study period of three weeks for conjugate 59, conjugate 61, conjugate 62, MMAE chemo, and PBS (control), in accordance with embodiments of the present invention. Average body weight changes over the course of the study relative to control, particularly due to loss of body weight, which can relate to toxicity of the treatment group.

Data set [4] can be described thus: Solubility in PBS on formulation. The format is physicochemical. The settings on record: formulation for dosing. On the procedure: as §3
Another data set deals with T1, integrin αvβ3 receptor (Homo sapiens, UniProt P05106+P06756).
T1 construct: purchased ACRO Biosystems (Newark, DE) and/or Bioss Inc (Woburn, MA)
T1 sequence (P06756 31-992 limits assumed): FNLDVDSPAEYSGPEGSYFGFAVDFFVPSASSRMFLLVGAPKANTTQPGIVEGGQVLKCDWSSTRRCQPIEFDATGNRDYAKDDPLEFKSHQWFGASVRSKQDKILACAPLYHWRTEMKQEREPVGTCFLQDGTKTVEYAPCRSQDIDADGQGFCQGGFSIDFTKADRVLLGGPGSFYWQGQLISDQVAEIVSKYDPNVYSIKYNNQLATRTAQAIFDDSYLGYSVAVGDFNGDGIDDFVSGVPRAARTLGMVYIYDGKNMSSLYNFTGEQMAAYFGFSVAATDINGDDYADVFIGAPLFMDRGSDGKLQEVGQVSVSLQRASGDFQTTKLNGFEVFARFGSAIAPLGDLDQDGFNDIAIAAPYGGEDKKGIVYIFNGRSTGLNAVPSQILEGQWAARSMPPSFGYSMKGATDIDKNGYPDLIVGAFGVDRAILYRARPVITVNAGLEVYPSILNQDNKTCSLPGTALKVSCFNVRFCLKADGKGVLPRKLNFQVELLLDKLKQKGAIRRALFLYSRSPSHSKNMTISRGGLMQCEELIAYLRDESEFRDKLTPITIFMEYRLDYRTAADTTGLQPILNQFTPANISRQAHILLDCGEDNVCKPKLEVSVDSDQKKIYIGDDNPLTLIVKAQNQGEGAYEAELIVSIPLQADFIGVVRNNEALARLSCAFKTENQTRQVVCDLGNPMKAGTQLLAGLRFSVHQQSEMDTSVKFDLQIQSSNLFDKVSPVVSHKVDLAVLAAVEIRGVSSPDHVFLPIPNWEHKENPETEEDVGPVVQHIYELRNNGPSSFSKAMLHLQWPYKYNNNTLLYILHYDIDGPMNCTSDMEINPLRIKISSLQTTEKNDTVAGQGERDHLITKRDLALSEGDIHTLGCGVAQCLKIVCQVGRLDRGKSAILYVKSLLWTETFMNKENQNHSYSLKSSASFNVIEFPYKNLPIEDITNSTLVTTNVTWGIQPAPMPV
T1 sequence (P05106 27-718 limits assumed): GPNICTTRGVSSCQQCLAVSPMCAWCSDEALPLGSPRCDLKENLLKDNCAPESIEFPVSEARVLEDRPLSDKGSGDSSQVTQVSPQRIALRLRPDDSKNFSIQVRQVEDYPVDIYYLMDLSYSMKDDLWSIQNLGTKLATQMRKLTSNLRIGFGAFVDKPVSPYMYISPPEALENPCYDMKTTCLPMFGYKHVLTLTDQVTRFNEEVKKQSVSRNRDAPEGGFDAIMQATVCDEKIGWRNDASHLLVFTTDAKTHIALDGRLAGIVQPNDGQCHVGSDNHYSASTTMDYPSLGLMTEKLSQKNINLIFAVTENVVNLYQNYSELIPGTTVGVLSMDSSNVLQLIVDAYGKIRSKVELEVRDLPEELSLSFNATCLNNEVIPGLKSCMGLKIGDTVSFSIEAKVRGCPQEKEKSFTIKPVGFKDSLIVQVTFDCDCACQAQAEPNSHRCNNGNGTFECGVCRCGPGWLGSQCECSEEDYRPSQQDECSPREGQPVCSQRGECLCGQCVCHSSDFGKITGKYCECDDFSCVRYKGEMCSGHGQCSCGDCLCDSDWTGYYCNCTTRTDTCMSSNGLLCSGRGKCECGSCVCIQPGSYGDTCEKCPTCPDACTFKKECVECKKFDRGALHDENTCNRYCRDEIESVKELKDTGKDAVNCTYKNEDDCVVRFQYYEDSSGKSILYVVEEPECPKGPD
The data set can be described thus: In vitro integrin αvβ3 binding assay. The settings on record: immobilized integrin αvβ3; read-out: IC50, displacement of labelled integrin αvβ3 ligand. An excerpt:
The in vitro integrin αvβ3 binding assay measures the binding affinity for different compounds (i.e., different conjugates or structures) with immobilized integrin αvβ3 receptor. The IC50 value is the compound concentration at which the compound displaces 50% of a labelled integrin αvβ3 ligand from the integrin αvβ3 receptor, which inhibits 50% of the labelled integrin αvβ3 ligand from binding to the integrin αvβ3 receptor.
Ninety-six polystyrene microtiter plate was coated with fibrinogen and incubated at 4° C. overnight. The wells were blocked with 3% BSA for 2 hours at room temperature and were washed with buffer A (50 mM Tris/HCl, 100 mM NaCl, 1 mM CaCl2), 1 mM MgCl2, 1% BSA) three times. Integrins αvβ3 and increasing concentrations of the compound of interest were added and incubated for 2 hours at room temperature, and then wells were washed three times with buffer A and incubated with a streptavidin HRP conjugate (1:1000 in buffer A) for 1 hour at room temperature. Finally, wells were washed three times with buffer A and […] peroxidase substrate TMB was added, and the reaction was terminated after 30 minutes with 50 µL of 450 nm stop solution for TMB. Absorbance was determined at 450 nm with a Microplate Reader (Bio-Rad, Hercules, CA, USA). […]

Data set [5] has as its system integrin αvβ3 expressing U87 cells. Kind of data set: In vitro cell adhesion assay (U87 cells to fibrinogen). The format is cell-based, human. The note with it: 2 h, read-out: IC50, inhibition of cell adhesion to fibrinogen. An excerpt:
The cell adhesion assay is a cell-based assay that measures how well different compounds (i.e., different conjugates or structures) block the adhesion of integrin αvβ3 expressing U87 cells to fibrinogen, a macromolecule that binds to the integrin αvβ3 receptor. The IC50 value is the compound concentration at which the compound displaces 50% of the cell adhesion to fibrinogen, which inhibits 50% of the cells from adhering to fibrinogen.
The cell adhesion assay is a functional cell assay, so the conjugates cannot be used with chemotherapy attached, because the conjugates will release the chemo over the course of the testing, killing the cells so that no readout can be obtained. Thus, the full conjugate molecule (targeting moiety, PEG, cleavable linker) is used without the chemo for this assay. Two compounds (conjugate 74 and conjugate 59) used are slightly different integrin αvβ3 targeting pieces with a large PEG (PEG 35 and PEG39, respectively), and the VCP cleavable linker attached. […]
96-well microtiter plates were coated with up to […] fibrinogen per well in […] phosphate-buffered saline (PBS) and incubated at 4° C. overnight. […] After washing with PBS, the fluorescence intensity of adherent cells was measured at an emission wavelength of 530 nm using an excitation wavelength of 485 nm by using a Microplate Reader.

As for `Nc1ccn([C@@H]2O[C@H](CO)[C@@H](O)C2(F)F)c(=O)n1` [Gemcitabine, reference compound], the IC50 in data set [1] (Homo sapiens) was 1790 nM.

Molecule `CC[C@H](C)[C@@H](C(CC(=O)N1CCC[C@H]1[C@H](OC)[C@@H](C)C(=O)N[C@H](C)[C@@H](O)c1ccccc1)OC)N(C)C(=O)[C@@H](NC(=O)[C@@H](NC)C(C)C)C(C)C` (some centres unmarked) [MMAE, monomethylauristatin E, reference compound] displayed a half-inhibitory concentration (IC50) in data set [2] (Homo sapiens, U-87 MG) of 2.51 nM. Also, in the data set with CWR-R1ca-Luc cells, the “average prostate cancer tumor volume” value is listed as “smaller tumor volumes than the non-MMAE conjugate 59”, the “IVIS average photons (viable tumor tissue)” value was “smaller IVIS® numbers than the non-MMAE conjugate 59” and the “average prostate cancer tumor weight” value is “smaller tumor weights than the non-MMAE conjugate 59”. For the same molecule, in data set [3], the “toxicity indicated by body weight” value is on record as “high toxicity” and the average body weight entry is “a loss of body weight over the course of the experiment”. Besides, in data set [1] (Homo sapiens), the IC50 turned out to be 3.85 nM. The “solubility in straight PBS” value in data set [4] was “less soluble in straight PBS”.

`NC(=O)c1cccc2cn(-c3ccc([C@@H]4CCCNC4)cc3)nc12` [Niraparib, reference compound] yielded an IC50 in data set [2] (Homo sapiens, U-87 MG) of 155 nM.

For the molecule `CCc1c2c(nc3ccc(O)cc13)-c1cc3c(c(=O)n1C2)COC(=O)[C@]3(O)CC` [SN38, reference compound], the IC50 was found to be 4.32 nM in data set [2] (Homo sapiens, U-87 MG) and 5.67 nM in data set [1] (Homo sapiens).

For the molecule `CC(C)[C@H](NC(=O)CCc1cn(CCOCCOCCOCCOCCOCCOCCOCCOCCOCCOCCOCCOCCOCCOCCOCCOCCOCCOCCOCCOCCOCCOCCOCCOCCOCCOCCOCCOCCOCCOCCOCCOCCOCCOCCOCCNC(=O)CC[C@H](NS(=O)(=O)c2ccccc2)C(=O)O)nn1)C(=O)N[C@@H](CCCNC(N)=O)C(=O)Nc1ccc(COC(=O)N2CCCC(c3ccc(-n4cc5cccc(C(N)=O)c5n4)cc3)C2)cc1` (some centres unmarked) [conjugate 40], the IC50 worked out at 1740 nM in data set [2] and 3.36 ± 0.22 nM at integrin αvβ3 receptor.

As to `CC(C)[C@H](NC(=O)CCc1cn(CCOCCOCCOCCOCCOCCOCCOCCOCCOCCOCCOCCOCCOCCOCCOCCOCCOCCOCCOCCOCCOCCOCCOCCOCCOCCOCCOCCOCCOCCOCCOCCOCCOCCOCCOCCNC(=O)CCC(NS(=O)(=O)c2ccccc2)C(=O)O)nn1)C(=O)N[C@@H](CCCNC(N)=O)C(=O)Nc1ccc(COC(=O)Nc2ccn([C@@H]3O[C@H](CO)C(O)C3(F)F)c(=O)n2)cc1` (some centres unmarked) [conjugate 45], the IC50 in data set [1] was found to be 3970 nM; at integrin αvβ3 receptor, 0.84 ± 0.16 nM.

`CC(C)[C@H](NC(=O)CCOCCOCCOCc1cn(CCOCCOCCOCCOCCOCCOCCOCCOCCOCCOCCOCCOCCOCCOCCOCCOCCOCCOCCOCCOCCOCCOCCOCCOCCOCCOCCOCCOCCOCCOCCOCCOCCOCCOCCOCCOCCC(=O)NC[C@H](NS(=O)(=O)c2ccccc2)C(=O)O)nn1)C(=O)N[C@@H](CCCNC(N)=O)C(=O)Nc1ccc(CO)cc1` [conjugate 59]: in data set [5], the IC50 worked out at 103 ± 1.7 nM.

With `CC[C@H](C)[C@@H]([C@@H](CC(=O)N1CCC[C@H]1[C@H](OC)[C@@H](C)C(=O)N[C@H](C)[C@@H](O)c1ccccc1)OC)N(C)C(=O)[C@@H](NC(=O)[C@H](C(C)C)N(C)C(=O)OCc1ccc(NC(=O)[C@H](CCCNC(N)=O)NC(=O)[C@@H](NC(=O)CCOCCOCCOCc2cn(CCOCCOCCOCCOCCOCCOCCOCCOCCOCCOCCOCCOCCOCCOCCOCCOCCOCCOCCOCCOCCOCCOCCOCCOCCOCCOCCOCCOCCOCCOCCOCCOCCOCCOCCOCCOCCC(=O)NC[C@H](NS(=O)(=O)c3ccccc3)C(=O)O)nn2)C(C)C)cc1)C(C)C` [conjugate 61], in the data set with CWR-R1ca-Luc cells, the “average prostate cancer tumor volume” value was “inhibits tumor growth more than the PEG15 conjugate 62”; the “IVIS average photons (viable tumor tissue)” value was “much smaller than the smaller PEG15 conjugate 62 and MMAE alone”; the “average prostate cancer tumor weight” value is reported as “comparable to the smaller PEG15 MMAE conjugate 62”. For the same molecule, in data set [3], the “toxicity indicated by body weight” value is “mild toxicity” and the average body weight result is “only a small difference compared to the PBS control”.

With `CCc1c2c(nc3ccc(O)cc13)-c1cc3c(c(=O)n1C2)COC(=O)[C@@]3(CC)OC(=O)N(C)CCN(C)C(=O)OCc1ccc(NC(=O)[C@H](CCCNC(N)=O)NC(=O)[C@@H](NC(=O)CCc2cn(CCOCCOCCOCCOCCOCCOCCOCCOCCOCCOCCOCCOCCOCCOCCOCCOCCOCCOCCOCCOCCOCCOCCOCCOCCOCCOCCOCCOCCOCCOCCOCCOCCOCCOCCOCCOC)nn2)C(C)C)cc1` [conjugate 73], in data set [2], the “cell viability result in words” value is given as “no activity” and the IC50 was above 10000 nM. In addition, in data set [1], the IC50 was above 10000 nM.

Take `CC(C)[C@H](NC(=O)CCc1cn(CCOCCOCCOCCOCCOCCOCCOCCOCCOCCOCCOCCOCCOCCOCCOCCOCCOCCOCCOCCOCCOCCOCCOCCOCCOCCOCCOCCOCCOCCOCCOCCOCCOCCOCCOCCNC(=O)CC[C@H](NS(=O)(=O)c2ccccc2)C(=O)O)nn1)C(=O)N[C@@H](CCCNC(N)=O)C(=O)Nc1ccc(CO)cc1` [conjugate 74]: the “cell viability result in words” value in data set [2] is “does not cause cell death”. Further, the half-inhibitory concentration (IC50) in data set [2] is above 10000 nM; in data set [1], above 10000 nM; in data set [5], 54 ± 2.2 nM.
